The values below come from US5047228A, “Nonionic 5-C-substituted 2,4,6-triiodoisophthalic acid derivatives” (Schering Aktiengesellschaft, priority 1980, dated 1991).

Each structure is given as a SMILES string.

Data set [1] can be described thus: Stability in heat sterilization. The data set is classed as physicochemical. The text has this: The present invention comprises nonionic X-ray contrast media based on the opacifying compounds of this invention with novel basic structures. These novel opacifying compounds are distinguished by a number of advantages. They are derived from triiodinated aromatic basic components which themselves are hydrophilic and nontoxic. […] They are also distinguished by a high chemical stability, especially also under the conditions of heat sterilization.
Solutions of the compounds of this invention can thus also be sterilized in the usual way by heating to 120° C. at a physiological pH value. The solutions have a low osmotic pressure even at high iodine concentrations, compared with the state of the art ionic X-ray contrast media. This is especially a prerequisite for a good local compatibility.

Data set [2] is described as follows: Distribution coefficient butanol/buffer pH 7.6. The data set is classed as physicochemical. The text has this: The distribution coefficient of a compound permits ascertainment of its hydrophilicity and thus its compatibility; the lower the value of the distribution coefficient, the higher the compatibility of the compound tested.
The next data set relates to dog erythrocytes. Put plainly: Erythrocyte damage (echinocyte formation in dog erythrocytes). The data set is classed as cell-based. Particulars: effect of metrizamide set at 10 as a standard, smaller number = higher compatibility. How it is done: The deformation of erythrocytes (erythrocyte damage) due to X-ray contrast media can be taken as a measure for the membrane-damaging effect of the compound. In this instance, the formation of echinocytes was measured in dog erythrocytes, setting the effect of metrizamide at 10 as a standard. A smaller number signifies a correspondingly higher compatibility.

A short description of another data set: LD50 rat (i.v.). Particulars: in vivo, iv, injection rate 2 ml/min, concentration 300 mg/ml, observation period 24 h. As for the experimental part:
(§1) *Injection rate 2 ml/min; concentration 300 mg/ml; observation period 24

A further data set is described as follows: Iodine content. The data set is classed as physicochemical.
A further data set in a line: LD50 mouse (i.v.). The note with it: in vivo, iv, injection rate 2 ml/min, concentration 300 mg/ml, observation period 24 h. How it is done:
as §1

The term LD50 denotes the dose at which mortality reaches 50%. High values mean a less toxic substance, low ones a more toxic substance. On to `O=C(c1c(I)c(C(=O)N(CCO)CCO)c(I)c(C(=O)N(CCO)CCO)c1I)N(CCO)CCO` [C, 2,4,6-triiodobenzene-1,3,5-tricarboxylic acid tris(bis-2-hydroxyethyl)triamide], for which, in data set [1], the “Stable in Heat Sterilization” value was “Yes”. Moreover, the “Distribution Coefficient Butanol/Buffer pH 7.6” value in data set [2] worked out at 0.131. Besides, the “Erythrocyte Damage” value in the data set on dog erythrocytes is 1.8. This molecule had an LD50 at 24 h in the data set “LD50 rat (i.v.)” of 12000 mg/kg. The molecule also had an Iodine Content in “Iodine content” of 45%.

In the case of `CN(CC(O)CO)C(=O)c1c(I)c(C(=O)N(C)CC(O)CO)c(I)c(C(=O)N(C)CC(O)CO)c1I` (stereo not drawn) [B, 2,4,6-triiodobenzene-1,3,5-tricarboxylic acid tris(2,3-dihydroxypropyl-N-methyl)triamide], the “Stable in Heat Sterilization” value in data set [1] is “Yes”. Besides, in data set [2], the “Distribution Coefficient Butanol/Buffer pH 7.6” value is 0.064. Besides, in the data set on dog erythrocytes, the “Erythrocyte Damage” value was found to be 2.1. Further, the LD50 at 24 h in “LD50 mouse (i.v.)” was 16000 mg/kg; in “LD50 rat (i.v.)” it was 11000 mg/kg. The molecule further came in with an Iodine Content in the data set “Iodine content” of 45%.

For the molecule `CN(CC(O)CO)C(=O)c1c(I)c(C(N)=O)c(I)c(C(=O)N(C)CC(O)CO)c1I` (stereo not drawn) [D, 2,4,6-triiodobenzene-1,3,5-tricarboxylic acid bis(2,3-dihydroxypropyl-N-methyl)triamide], the “Stable in Heat Sterilization” value in data set [1] is recorded as “Yes”. Besides, the “Distribution Coefficient Butanol/Buffer pH 7.6” value in data set [2] was determined as 0.074. Moreover, the “Erythrocyte Damage” value in the data set with dog erythrocytes is 4.2. The molecule also displayed an Iodine Content in the data set “Iodine content” of 50%.

Consider `CC(=O)Nc1c(I)c(C(=O)N[C@H]2C(O)O[C@H](CO)[C@@H](O)[C@@H]2O)c(I)c(N(C)C(C)=O)c1I` (stereo partly drawn) [A, reference compound], for which the “Stable in Heat Sterilization” value in data set [1] is “No”. Besides, the “Distribution Coefficient Butanol/Buffer pH 7.6” value in data set [2] was 0.259. The “Erythrocyte Damage” value with dog erythrocytes is recorded as 10. Further, the 50% lethal dose (LD50) at 24 h in the data set “LD50 mouse (i.v.)” was found to be 12000 mg/kg; in “LD50 rat (i.v.)” it was 11000 mg/kg. The Iodine Content in the data set “Iodine content” came to 48%.

Consider `CNC(=O)c1c(I)c(C(=O)NC(CO)C(O)CO)c(I)c(C(=O)NC(CO)C(O)CO)c1I` (stereo not drawn) [G, 5-N-methylcarbamoyl-2,4,6-triiodoisophthalic acid bis(2,3-dihydroxy-1-hydroxymethylpropyl)diamide], for which the “Stable in Heat Sterilization” value in data set [1] is given as “Yes”. Also, the “Distribution Coefficient Butanol/Buffer pH 7.6” value in data set [2] is reported as 0.065. Further, in the data set with dog erythrocytes, the “Erythrocyte Damage” value is 2.8. Moreover, the LD50 at 24 h in the data set “LD50 rat (i.v.)” came to 19000 mg/kg. Moreover, the Iodine Content in “Iodine content” turned out to be 47%.

Consider `CN(CC(O)C(O)C(O)C(O)CO)C(=O)c1c(I)c(C(=O)N(C)CC(O)C(O)C(O)C(O)CO)c(I)c(C(=O)N(C)CC(O)C(O)C(O)C(O)CO)c1I` (stereo not drawn) [E, 2,4,6-triiodobenzene-1,3,5-tricarboxylic acid tris(2,3,4,5,6-pentahydroxyhexyl-N-methyl)triamide], for which the “Stable in Heat Sterilization” value in data set [1] is on record as “Yes”. For the same molecule, the “Distribution Coefficient Butanol/Buffer pH 7.6” value in data set [2] is on record as less than 0.001. The “Erythrocyte Damage” value in the data set with dog erythrocytes is less than 0.3. The molecule also displayed an Iodine Content in “Iodine content” of 34%.

Regarding `CN(C)C(=O)c1c(I)c(C(=O)NCC(O)CO)c(I)c(C(=O)NCC(O)CO)c1I` (stereo not drawn) [F, 2,4,6-triiodobenzene-1,3,5-tricarboxylic acid [(N,N-dimethyl)-bis(2,3-dihydroxypropyl)]-triamide], in data set [1], the “Stable in Heat Sterilization” value was “Yes”. In data set [2], the “Distribution Coefficient Butanol/Buffer pH 7.6” value turned out to be 0.171. Besides, in the data set with dog erythrocytes, the “Erythrocyte Damage” value is 2.7. The LD50 at 24 h came out at 14000 mg/kg in the data set “LD50 mouse (i.v.)” and 11000 mg/kg in “LD50 rat (i.v.)”. The molecule further showed an Iodine Content in the data set “Iodine content” of 50%.
